In test [1] the test system is wild-type ghrelin receptor. As to the kind of experiment: IP1 accumulation, wild-type ghrelin receptor, HEK293 cells, 37 °C 2 h, Cisbio IP1 kit. The class given is cell-based, human. Conditions: WT. Here is the method:
Fig. 1 Overall structures of ghrelin receptors bound to inverse agonist and agonist. a Dose-dependent responses of endogenous agonist ghrelin, inverse agonist PF-05190457 and antagonist compound 21 containing 10 nM ghrelin peptide at wild-type ghrelin receptor measured by cellular IP1 accumulation assays. […] Data represent the mean ± SEM from n = 3 biologically independent experiments performed in triplicate. b View from within the plane of the membrane. The inverse agonist-bound ghrelin receptor is represented as a wheat cartoon, and PF-05190457 is shown as a marine blue sphere. Cryo-EM structure of the agonist ghrelin-bound ghrelin receptor-Gαo1-scFv16 complex. c Ghrelin peptides and receptors are shown as deep salmon spheres and aquamarine cartoons, respectively. The Go heterotrimer and scFv16 are shown in the gray cartoon. d View from the extracellular side of the membrane. […]
IP accumulation was measured using Cisbio IP1 assay kit (Cisbio, 62IPAPEB), which has been previously described. […] IP1 was quantified using Synergy H1 microplate reader (BioTek) with excitation at 320 nm, emission at 620 nm, and 665 nm. The accumulation of IP1 was calculated according to a standard dose–response curve in GraphPad Prism 8 (GraphPad Software). […]

Another test deals with ghrelin receptor mutants. As to the kind of experiment: IP1 accumulation, ghrelin receptor mutants, HEK293 cells, 37 °C 2 h (compound 21 containing 10 nM ghrelin). The class given is cell-based, human. Conditions: for ghrelin-induced activation, effect of mutation: peer review file. The source says: Fig. 2 The binding mode of PF-05190457 with the ghrelin receptor. a The detailed binding mode of PF-05190457 in the orthosteric pocket of the ghrelin receptor. The |Fo| − |Fc| omit map (contoured at 3.0 σ) for PF-05190457 (shown as marine blue sticks). […] The diazaspiro core is shown in pink, arm-1 is sky blue, and arm-2 is light green. The red solid lines indicate hydrogen bonds involved in interactions with the side chains of key residues. d–f Key residues of the ghrelin receptor (wheat sticks) involved in ligand binding in cavity III (d), cavity I (e), and cavity IV (f). The binding pocket is highly hydrophobic, and the particular polar network is shown as black dotted lines. g IP1 accumulation induced by the inverse agonist PF-05190457 and antagonist compound 21. Bars represent the difference in the calculated potency (pIC50) of the inverse agonist for mutations relative to the WT ghrelin receptor. Data are colored according to extent of effect. nd not detected, **P < 0.01, ***P < 0.001 (one-way analysis of variance (ANOVA) followed by Dunnett’s test, compared with the response of WT, P < 0.001, P < 0.001, P < 0.001, P > 0.999, nd, nd, P = 0.05, nd, P < 0.001, P < 0.001, nd, nd, nd, nd, nd, nd, P < 0.01, P = 0.264, P < 0.001, nd, P < 0.001, nd from left to right). Data represent the mean ± SEM from n = 3 biologically independent experiments performed in triplicate. […] The salt bridges between E124^3.33 and R283^6.55 as well as between R102^2.63 and Q120^3.29, are broken upon PF-05190457 binding.
To measure the activity of inverse agonist PF-05190457 (Tocris, Cat. No. 6350), we carried out IP1 accumulation assays for ghrelin receptor independent of agonist. The agonist ghrelin and antagonist compound 21 were also performed as the control. The cDNA of ghrelin receptor subcloned into pcDNA3.1(+) expression vector with a HA signal sequence followed by a Flag tag at the N-terminus. Point mutations used in our study were generated by using Q5 site-Directed Mutagenesis kit (NEB). All the constructs were verified by sequencing. The constructs were expressed in HEK293 cells using PEI transfection reagent (YEASEN, 40815es03) according to the manufacturer’s instruction. Cells were harvested 48 h post transfection.
IP accumulation was measured using Cisbio IP1 assay kit (Cisbio, 62IPAPEB), which has been previously described. In brief, the harvested cells were distributed in a low volume 96-well dish and stimulated with increased concentration of inverse agonist PF-05190457, agonist ghrelin peptide or antagonist compound 21 containing 10 nM ghrelin peptide at 37 °C for 2 h. After that, d2-labeled IP1 and cryptate-labeled anti-IP1 monoclonal antibody dissolved in Lysis Buffer were added to the wells. After 1 h incubation at room temperature. IP1 was quantified using Synergy H1 microplate reader (BioTek) with excitation at 320 nm, emission at 620 nm, and 665 nm. The accumulation of IP1 was calculated according to a standard dose–response curve in GraphPad Prism 8 (GraphPad Software). Data were represented as the mean ± SEM from three independent experiments and all experiments were repeated at least three times.
Supplementary Fig. 6: IP1 accumulation assay.
(a) Expression level of the ghrelin receptor mutants. Data represent the mean ± SEM from three independent experiments performed in triplicate. ns, not significant, **p < 0.01, ***p < 0.001 (one-way analysis of variance [ANOVA] followed by Dunnett’s test, compared with the response […]
0.001, p=0.996, p=0.008, p=0.999 from left to right). Data represent the mean ± SEM from n=3 biologically independent experiments performed in triplicate.
(b) IP1 accumulation measurement induced by inverse agonist PF-05190457(left), agonist ghrelin (middle) and antagonist compound 21 (right). ns, not significant; nd, not detected; ***p < 0.001 […]
< 0.001, nd, nd, nd, p=0.264, nd, nd from left to right). Data represent the mean ± SEM from […]

No end group written: not given here. *: point of attachment. Octanoyl = CCCCCCCC(=O)*

Regarding “ghrelin: endogenous agonist, 28-amino acid peptide with octanoyl modification at the side chain of Ser+3 (GSS(Octanoyl)FLSPEHQRVQQRKESKKPPAKLQPR; UniProt Q9UBU3 24-51, looked up)”, in test [1], the “activation potency” value was “high activation potency as a full agonist”. In addition, the “ghrelin-induced activation, effect of mutation” value in the test on ghrelin receptor mutants (D99^2.60 mutant) and with ghrelin receptor mutants (R102^2.63 mutant) was “decreased potency of ghrelin induced activation” each time. For the same substance, the “potency, effect of mutation” value with ghrelin receptor mutants (F279^6.51A), with ghrelin receptor mutants (F312^7.42A) and with ghrelin receptor mutants (W276^6.48A) was “impaired the potency” each time.

The record behind these values is article PMC8758724, “Molecular mechanism of agonism and inverse agonism in ghrelin receptor” (Nature Communications, 2022).
